# Data: patent US9334475B2, “Method for inducing erythropoietin-producing cell” (Kyoto University, priority 2012, dated 2016)
# Legend:
# [1] = system: EPO-producing cells induced to differentiate from human iPS cells; assay: EPO production-promoting ability in Step 2 of differentiation of human iPS cells; type: cell-based; conditions: Step 2, compared with IGF-2 (FIG. 4)
# Method: (§1) Human iPS cells (201B6, 201B7, and 253G4) were obtained from Professor Yamanaka of Kyoto University, and cultured in accordance with a conventional method (Takahashi K, et al. Cell. 131: pp. 861 to 872). Using SNL cells (McMahon, A. P. and Bradley, A. (1990) Cell 62; pp. 1073 to 1085) as feeder cells, the iPS cells were cultured to 80 to 90% confluency on a 6 cm dish. The cells were then detached by adding a CTK solution and the feeder cells were removed, and 1 mL of Accutase™ was added to dissociate the iPS cells into single cells.
# Subsequently, the iPS cells were suspended in an RPMI medium containing 10 μM Y-27632, 2% B27, and penicillin/streptomycin and then seeded in a Matrigel-coated 24-well plate at 250,000 cells/well. After adding 100 ng/mL Activin and 1 μM CHIR99021, the volume of medium was adjusted to 0.5 mL/well, and the cells were cultured for six days (Step 1). At this time, on Day 2, 0.5 mM NaB was added to the medium (without medium exchange), and on Day 3, the medium was exchanged for a medium containing 100 ng/mL A ctivin, 1 μM CHIR99021, and 0.5 mM NaB, and on Day 5, the medium was exchanged for a medium containing 100 ng/mL Activin and 1 μM CHIR99021. […]
# In Step 2, the cells were analyzed after 18 days of culture. […]
# [2] = system: EPO-producing cells induced to differentiate from human iPS cells; assay: ELISA of extracellular EPO secretion by EPO-producing cells at various IGF-1 concentrations; type: cell-based
# Method: as §1
# Subsequently, the iPS cells were suspended in an RPMI medium containing 10 μM Y-27632, 2% B27, and penicillin/streptomycin and then seeded in a Matrigel-coated 24-well plate at 250,000 cells/well. After adding 100 ng/mL Activin and 1 μM CHIR99021, the volume of medium was adjusted to 0.5 mL/well, and the cells were cultured for six days (Step 1). At this time, on Day 2, 0.5 mM NaB was added to the medium (without medium exchange), and on Day 3, the medium was exchanged for a medium containing 100 ng/mL A ctivin, 1 μM CHIR99021, and 0.5 mM NaB, and on Day 5, the medium was exchanged for a medium containing 100 ng/mL Activin and 1 μM CHIR99021.
# After six days of culture, the medium was replaced by a DMEM medium containing 1% DMSO, 50 ng/mL IGF-1, 20% KSR, 2 mM L-glutamine, nonessential amino acid (NEAA), 100 μM β-ME (2-mercaptoethanol), 50 mU/L penicillin, and 50 μg/L streptomycin, and the cells were cultured for a certain period of days (Step 2). During cell culture, the medium was exchanged every other day.
# Subsequently, ELISA was performed to study whether the EPO protein expressed was secreted out of the cells. As a result, EPO protein was confirmed outside the cells. […] Further, as a result of studying the amount of IGF-1 added and the number of days of culture, the highest amount of EPO secretion was observed when the cells were cultured for 10 days at 50 ng/mL (FIG. 6). […]
substance,measurement,setting,value
IGF-1: IGF family gene product used as a growth factor in the Step 2 medium,EPO production-promoting ability,[1],promote EPO production more potently than IGF-2
same,days of culture in Step 2 giving the highest amount of EPO secretion,[2]; IGF-1 at 50 ng/mL (FIG. 6),10 days
same,change in EPO secretion over time,"[2]; IGF-1 at 100 ng/mL, Step 2 (FIG. 6)",an increasing trend of EPO secretion was confirmed up to Day 12
same,concentration of IGF-1 added that increased the amount of extracellular secretion of EPO,"[2]; Step 2, ELISA, Day 8 cells (FIG. 5)",≥ 1 ng/mL
